Active and inactive are the calls of the source. The rule behind the calls is not given here.
Key:
[1] = Activation of trypsin-like activity of human 20S proteasome using Bz-VGR-AMC as substrate by fluorescence assay
Homo sapiens [2] = organism: Homo sapiens; test: Reversal of amyloid beta-induced inhibition of chymotrypsin-like activity of PA28-activated human 20S proteasome using suc-LLVY-AMC as substrate at 14 uM by fluorescence assay; design: scale not given: the % may be the effect or the level left
Homo sapiens [3] = organism: Homo sapiens; test: Reversal of amyloid beta-induced inhibition of chymotrypsin-like activity of PA28-activated human 20S proteasome using suc-LLVY-AMC as substrate by fluorescence assay
[4] = Inhibition of PA28 activated chymotrypsin-like activity of human 20S proteasome using suc-LLVY-AMC as substrate by fluorescence assay
[5] = Activation of caspase-like activity of human 20S proteasome using (Z)-LLE-bNA as substrate by fluorescence assay
Homo sapiens [6] = organism: Homo sapiens; test: Activation of chymotrypsin-like activity of human 20S proteasome using suc-LLVY-AMC as substrate at 18 uM by fluorescence assay in presence of 1.1 to 30 ug/mL
Homo sapiens [7] = organism: Homo sapiens; test: Activation of chymotrypsin-like activity of human 20S proteasome using suc-LLVY-AMC as substrate at 18 uM by fluorescence assay
[8] = Activation of chymotrypsin-like activity of human 20S proteasome using suc-LLVY-AMC as substrate by fluorescence assay
Homo sapiens [9] = organism: Homo sapiens; test: Activation of chymotrypsin-like activity of human 20S proteasome using suc-LLVY-AMC as substrate by fluorescence assay relative to control

Row | SMILES | IC50 [4] | EC50 ([8]; read-out: EC50) | IC50 ([4]; read-out: IC50) | EC50 [8] | further results
1 | COC(=O)CC[C@@H](C)[C@H]1CC[C@H]2[C@@H]3CC[C@@H]4C[C@H](OC(=O)CCCCCC(=O)O)CC[C@]4(C)[C@H]3CC[C@]12C | Not Active | 7.8 µM | – | – | EC50 [1]: 8.6 µM; Activity (Homo sapiens [2]): 50%; Activity (Homo sapiens [3]): Dose-dependent effect; EC50 [5]: 11 µM; Activity (Homo sapiens [6]): Active; Activity (Homo sapiens [7]): Active
2 | COC(=O)CC[C@@H](C)[C@H]1CC[C@H]2[C@@H]3CC[C@@H]4C[C@@H](OC(=O)CCCCCC(=O)O)CC[C@]4(C)[C@H]3CC[C@]12C | – | – | 3.1 µM | Not Active | –
3 | COC(=O)CC[C@@H](C)[C@H]1CC[C@H]2[C@@H]3CC[C@@H]4C[C@@H](N)CC[C@]4(C)[C@H]3CC[C@]12C | – | – | 5.7 µM | Not Active | –
4 | COC(=O)CC[C@@H](C)[C@H]1CC[C@H]2[C@@H]3CC[C@@H]4C[C@H](N)CC[C@]4(C)[C@H]3CC[C@]12C | Not Active | 6.7 µM | – | – | –
5 | C[C@H](CCC(=O)O)[C@H]1CC[C@H]2[C@@H]3CC[C@@H]4C[C@H](OC(=O)CCCCCC(=O)O)CC[C@]4(C)[C@H]3CC[C@]12C | Not Active | > 15 µM | – | – | –
6 | CCOC(=O)CC[C@@H](C)[C@H]1CC[C@H]2[C@@H]3CC[C@@H]4C[C@H](OC(=O)CCCCCC(=O)O)CC[C@]4(C)[C@H]3CC[C@]12C | Not Active | > 15 µM | – | – | –
7 | CNC(=O)CC[C@@H](C)[C@H]1CC[C@H]2[C@@H]3CC[C@@H]4C[C@H](OC(=O)CCCCCC(=O)O)CC[C@]4(C)[C@H]3CC[C@]12C | Not Active | – | – | Not Active | –
8 | C[C@H](CCC(=O)O)[C@H]1CC[C@H]2[C@@H]3CC[C@@H]4C[C@H](O)CC[C@]4(C)[C@H]3CC[C@]12C [LITHOCHOLIC ACID] | – | – | > 10 µM | Not Active | –
9 | COC(=O)CC[C@@H](C)[C@H]1CC[C@H]2[C@@H]3CC[C@@H]4C[C@@H](NC(=O)CCCCCC(=O)O)CC[C@]4(C)[C@H]3CC[C@]12C | – | – | 2.6 µM | Not Active | –
10 | COC(=O)CC[C@@H](C)[C@H]1CC[C@H]2[C@@H]3CC[C@@H]4C[C@H](NC(=O)CCCCCC(=O)O)CC[C@]4(C)[C@H]3CC[C@]12C | Not Active | 4.3 µM | – | – | fold change (FC) (Homo sapiens [9]): 2
11 | C/C=C1/[C@H](O[C@@H]2O[C@H](CO)[C@@H](O)[C@H](O)[C@H]2O)OC=C(C(=O)OC)[C@H]1CC(=O)OCCc1ccc(O)c(O)c1 [OLEUROPEIN] | Not Active | – | – | Not Active | –

Reference: ChEMBL document CHEMBL2157990 (ACS Med Chem Lett, 2012)
